This passage reports IC50 results from patent publication US7786137B2, “Bicyclic derivatives as modulators of ion channels” (Vertex Pharmaceuticals Incorporated, priority 2005, dated 2010).

Usually IC50 stands for the concentration that inhibits the measured activity by half. High values mean lower potency, low ones higher potency.

SMILES strings stand for the structures.

This assay deals with NaV1.3 (Homo sapiens, UniProt Q9NY46). The assay is described as follows: VIPR optical membrane potential assay, NaV1.3 inhibition. It is filed as cell-based. Set-up: expressed in transfected cells; host or cells: HEK293. The settings on record: activity against NaV 1.3 channel. How it is done: Antagonist properties of test compounds were assessed as follows. Cells expressing the NaV of interest were placed into microtiter plates. After an incubation period, the cells were stained with fluorescent dyes sensitive to the transmembrane potential. The test compounds were added to the microtiter plate. The cells were stimulated with either a chemical or electrical means to evoke a NaV dependent membrane potential change from unblocked channels, which was detected and measured with trans-membrane potential-sensitive dyes. Antagonists were detected as a decreased membrane potential response to the stimulus.
NaV1.3, sequence (Q9NY46 whole entry): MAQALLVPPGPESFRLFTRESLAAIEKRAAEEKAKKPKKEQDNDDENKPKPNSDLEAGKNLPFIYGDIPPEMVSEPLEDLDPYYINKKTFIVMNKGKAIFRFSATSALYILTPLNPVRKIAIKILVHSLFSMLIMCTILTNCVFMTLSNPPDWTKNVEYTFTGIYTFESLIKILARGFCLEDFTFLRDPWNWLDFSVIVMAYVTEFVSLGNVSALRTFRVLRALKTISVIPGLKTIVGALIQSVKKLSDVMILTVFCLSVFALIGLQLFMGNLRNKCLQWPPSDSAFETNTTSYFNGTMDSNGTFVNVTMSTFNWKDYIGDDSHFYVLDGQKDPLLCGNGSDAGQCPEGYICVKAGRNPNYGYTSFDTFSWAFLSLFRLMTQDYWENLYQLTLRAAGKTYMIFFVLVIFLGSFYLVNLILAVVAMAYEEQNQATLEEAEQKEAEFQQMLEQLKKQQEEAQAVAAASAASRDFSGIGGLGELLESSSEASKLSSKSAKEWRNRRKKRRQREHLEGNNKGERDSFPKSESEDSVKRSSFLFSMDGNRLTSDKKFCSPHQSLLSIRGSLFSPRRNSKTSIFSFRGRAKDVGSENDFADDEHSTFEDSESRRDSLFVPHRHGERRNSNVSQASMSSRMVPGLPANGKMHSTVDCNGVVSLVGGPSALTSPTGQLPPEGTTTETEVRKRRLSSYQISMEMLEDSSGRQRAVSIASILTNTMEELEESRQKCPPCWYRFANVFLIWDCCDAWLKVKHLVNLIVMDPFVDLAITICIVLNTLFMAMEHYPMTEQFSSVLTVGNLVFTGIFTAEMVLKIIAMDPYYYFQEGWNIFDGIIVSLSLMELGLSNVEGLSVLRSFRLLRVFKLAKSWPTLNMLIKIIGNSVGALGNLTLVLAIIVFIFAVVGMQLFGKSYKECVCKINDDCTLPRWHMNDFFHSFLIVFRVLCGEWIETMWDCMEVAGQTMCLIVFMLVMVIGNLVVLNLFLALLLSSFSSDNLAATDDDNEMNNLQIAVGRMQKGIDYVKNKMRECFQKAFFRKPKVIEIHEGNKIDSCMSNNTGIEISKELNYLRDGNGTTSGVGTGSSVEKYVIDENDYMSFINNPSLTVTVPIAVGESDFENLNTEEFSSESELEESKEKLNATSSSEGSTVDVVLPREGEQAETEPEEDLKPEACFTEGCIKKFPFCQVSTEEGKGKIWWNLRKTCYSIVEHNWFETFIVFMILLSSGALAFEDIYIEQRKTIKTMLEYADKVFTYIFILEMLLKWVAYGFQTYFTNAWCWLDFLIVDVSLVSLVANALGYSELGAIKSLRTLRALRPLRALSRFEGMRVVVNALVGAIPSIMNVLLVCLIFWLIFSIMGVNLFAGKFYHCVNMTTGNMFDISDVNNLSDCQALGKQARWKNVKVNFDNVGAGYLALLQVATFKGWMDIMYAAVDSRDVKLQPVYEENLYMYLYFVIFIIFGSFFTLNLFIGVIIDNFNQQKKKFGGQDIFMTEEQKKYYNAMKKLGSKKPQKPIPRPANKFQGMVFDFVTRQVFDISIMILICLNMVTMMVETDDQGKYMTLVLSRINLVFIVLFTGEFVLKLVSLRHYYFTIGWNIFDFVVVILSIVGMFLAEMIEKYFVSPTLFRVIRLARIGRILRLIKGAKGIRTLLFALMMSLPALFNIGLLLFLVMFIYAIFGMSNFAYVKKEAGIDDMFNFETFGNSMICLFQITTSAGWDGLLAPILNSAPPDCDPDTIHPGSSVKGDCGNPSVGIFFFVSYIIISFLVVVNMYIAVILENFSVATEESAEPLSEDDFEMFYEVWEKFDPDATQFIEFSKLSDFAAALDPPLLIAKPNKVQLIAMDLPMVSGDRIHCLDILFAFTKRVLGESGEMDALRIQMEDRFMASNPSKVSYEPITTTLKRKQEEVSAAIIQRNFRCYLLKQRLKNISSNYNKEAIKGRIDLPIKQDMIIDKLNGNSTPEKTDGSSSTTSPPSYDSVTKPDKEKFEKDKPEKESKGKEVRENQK
The following is an example of how NaV1.3 inhibition activity is measured using the optical membrane potential method#2. Other subtypes are performed in an analogous mode in a cell line expressing the NaV of interest.
HEK293 cells stably expressing NaV1.3 are plated into 96-well microtiter plates. After an appropriate incubation period, the cells are stained with the voltage sensitive dyes CC2-DMPE/DiSBAC2(3) as follows.
2× CC2-DMPE=20 μM CC2-DMPE: 10 mM CC2-DMPE is vortexed with an equivalent volume of 10% pluronic, followed by vortexing in required amount of HBSS containing 10 mM HEPES. Each cell plate will require 5 mL of 2× CC2-DMPE. 50 μL of 2× CC2-DMPE is to wells containing washed cells, resulting in a 10 μM final staining concentration. The cells are stained for 30 minutes in the dark at RT.
2× DISBAC2(3) with ABSC1=6 μM DISBAC2(3) and 1 mM ABSC1: The required amount of 10 mM DISBAC2(3) is added to a 50 ml conical tube and mixed with 1 μL 10% pluronic for each mL of solution to be made and vortexed together. Then HBSS/HEPES is added to make up 2× solution. Finally, the ABSC1 is added.
The 2× DiSBAC2(3) solution can be used to solvate compound plates. Note that compound plates are made at 2× drug concentration. Wash stained plate again, leaving residual volume of 50 μL. Add 50 μL/well of the 2× DiSBAC2(3) w/ABSC1. Stain for 30 minutes in the dark at RT.
The instrument comprises a microtiter plate handler, an optical system for exciting the coumarin dye while simultaneously recording the coumarin and oxonol emissions, a waveform generator, a current- or voltage-controlled amplifier, and a device for inserting electrodes in well. Under integrated computer control, this instrument passes user-programmed electrical stimulus protocols to cells within the wells of the microfilter plate.
Insert or use electrodes into each well to be assayed.
Use the current-controlled amplifier to deliver stimulation wave pulses for 3 s. Two seconds of pre-stimulus recording are performed to obtain the un-stimulated intensities. Five seconds of post-stimulation recording are performed to examine the relaxation to the resting state.
Data are analyzed and reported as normalized ratios of background-subtracted emission intensities measured in the 460 nm and 580 nm channels. Background intensities are then subtracted from each assay channel. Background intensities are obtained by measuring the emission intensities during the same time periods from identically treated assay wells in which there are no cells. The response as a function of time is then reported as the ratios obtained using the following formula: […]
The data is further reduced by calculating the initial (Ri) and final (Rf) ratios. These are the average ratio values during part or all of the pre-stimulation period, and during sample points during the stimulation period. The response to the stimulus ? =Rf/Ri is then calculated.
Control responses are obtained by performing assays in the presence of a compound with the desired properties (positive control), such as tetracaine, and in the absence of pharmacological agents (negative control). Responses to the negative (N) and positive (P) controls are calculated as above. The compound antagonist activity A is defined as:
[formula] where R is the ratio response of the test compound.
`Cc1ccc(OCC(=O)N2CCc3cc(S(=O)(=O)Nc4nccs4)ccc32)c(C)c1` [Compound 60]: the half-maximal inhibitory concentration (IC50) was under 2 µM.
`O=C(CNc1cc(F)ccc1F)N1CCc2cc(S(=O)(=O)Nc3nccs3)ccc21` [Compound 61] showed an IC50 of under 2 µM.
For `CC(Oc1cccc(Cl)c1)C(=O)N1Cc2ccc(S(=O)(=O)Nc3nccs3)cc2C1` (centres unmarked) [Compound 62] the value was under 2 µM.
Consider `O=C(Cc1ccc(C(F)(F)F)cc1)N1CCc2cc(S(=O)(=O)Nc3nccs3)ccc21` [Compound 63], for which the half-maximal inhibitory concentration (IC50) is under 2 µM.
The value for `Cc1ccc2c(c1)CCCN2CC(=O)N1CCc2cc(S(=O)(=O)Nc3nccs3)ccc21` [Compound 64] was 2 to 5 µM.
On to `O=S(=O)(Nc1nccs1)c1ccc2c(c1)CCN2CCNc1nc2ccccc2[nH]1` [Compound 66], for which the IC50 is over 5 µM.
For `O=C(COc1cccc(Cl)c1Cl)N1CCc2cc(S(=O)(=O)Nc3nccs3)ccc21` [Compound 67] the value was under 2 µM; for `O=C(CNc1ccc(C(F)(F)F)cc1)N1CCc2cc(S(=O)(=O)Nc3nccs3)ccc21` [Compound 68], 2 to 5 µM.
As to `O=C(Cn1ccc2cccc(Cl)c21)N1CCc2ccc(S(=O)(=O)Nc3nccs3)cc2C1` [Compound 69], the half-inhibitory concentration (IC50) is over 5 µM.
The value for `O=C(c1cc(F)ccc1F)N1CCCc2cc(S(=O)(=O)Nc3nccs3)ccc21` [Compound 70] was over 5 µM; that for `O=C(COc1ccnc2c(C(F)(F)F)cccc12)N1CCc2cc(S(=O)(=O)Nc3ncns3)ccc21` [Compound 71] was under 2 µM; that for `O=C(COc1ccccc1)N1CCCc2cc(S(=O)(=O)Nc3ncns3)ccc21` [Compound 72] was over 5 µM.
As for `O=C(c1ccc(F)cc1F)N1CCc2ccc(S(=O)(=O)Nc3nccs3)cc2C1` [Compound 73], the IC50 is over 5 µM.
`O=C(c1cc(F)ccc1F)N1CCc2ccc(S(=O)(=O)Nc3nccs3)cc2C1` [Compound 74]: the IC50 is over 5 µM.
For `CC1CCCN(CC(=O)N2CCc3cc(S(=O)(=O)Nc4nccs4)ccc32)C1` (centres unmarked) [Compound 75], the IC50 is over 5 µM.
For `O=C(c1c(F)cc(F)cc1F)N1CCCc2cc(S(=O)(=O)Nc3nccs3)ccc21` [Compound 76] the value was over 5 µM; for `Cc1ccc(OCC(=O)N2CCc3cc(S(=O)(=O)Nc4nccs4)ccc32)cc1C` [Compound 79], under 2 µM.
Compound `COc1ccc(OC(=O)N2CCc3cc(S(=O)(=O)Nc4nccs4)ccc32)cc1` [Compound 80] gave a 50% inhibitory concentration (IC50) of over 5 µM.
For `Cc1ccc(C(=O)N2CCc3cc(S(=O)(=O)Nc4nccs4)ccc32)cc1Cl` [Compound 82] the value was under 2 µM.
For `COc1ccc(F)cc1C(=O)N1CCc2cc(S(=O)(=O)Nc3nccs3)ccc21` [Compound 83] the value was 2 to 5 µM; for `O=C(COc1ccc(OC(F)(F)F)cc1)N1Cc2ccc(S(=O)(=O)Nc3nccs3)cc2C1` [Compound 84], under 2 µM.
For `CC1CN(CC(=O)N2CCc3cc(S(=O)(=O)Nc4nccs4)ccc32)CC(C)O1` (centres unmarked) [Compound 85] the value was over 5 µM; for `O=C(c1cccc(Cl)c1)n1ccc2cc(S(=O)(=O)Nc3nccs3)ccc21` [Compound 86], under 2 µM.
As for `C[C@H](C(=O)N1CCc2cc(S(=O)(=O)Nc3nccs3)ccc21)n1ccc2ccccc21` [Compound 87], the IC50 is under 2 µM.
Compound `O=C(c1ccc(Cl)c(Cl)c1)N1CCc2cc(S(=O)(=O)Nc3ncns3)ccc21` [Compound 89] gave an IC50 of under 2 µM.
The value for `O=C(c1ccc(Cl)c(Cl)c1)N1CCc2cc(S(=O)(=O)Nc3nccs3)ccc21` [Compound 90] was under 2 µM; that for `CC(Oc1cccc(Cl)c1)C(=O)N1CCc2cc(S(=O)(=O)Nc3nccs3)ccc21` (centres unmarked) [Compound 91] was under 2 µM; that for `C[C@H](C(=O)N1CCc2cc(S(=O)(=O)Nc3ncns3)ccc21)n1ccc2c(F)cccc21` [Compound 93] was under 2 µM.
For `C[C@H](C(=O)N1Cc2ccc(S(=O)(=O)Nc3ncns3)cc2C1)n1ccc2c(F)cccc21` [Compound 94] the value was under 2 µM; for `O=C(c1ccc(F)cc1F)N1CCCc2cc(S(=O)(=O)Nc3nccs3)ccc21` [Compound 95], over 5 µM; for `O=C(c1ccccc1F)N1CCCc2cc(S(=O)(=O)Nc3nccs3)ccc21` [Compound 96], over 5 µM.
In turn, `Cc1ccc(OCC(=O)N2CCc3cc(S(=O)(=O)Nc4ncns4)ccc32)cc1C` [Compound 97] returned an IC50 of under 2 µM.
Compound `Cc1nnc(NS(=O)(=O)c2ccc3c(c2)CN(C(=O)[C@@H](C)N2CCCc4cc(Cl)ccc42)C3)s1` [Compound 98] yielded an IC50 of 2 to 5 µM.
The value for `Cc1ccccc1CNCCN1CCc2cc(S(=O)(=O)Nc3nccs3)ccc21` [Compound 99] was over 5 µM.
Regarding `COc1ccc(NCCN2CCc3cc(S(=O)(=O)Nc4nccs4)ccc32)cc1` [Compound 100], the IC50 is over 5 µM.
The value for `O=C(CN1CCCc2ccccc21)N1CCCc2cc(S(=O)(=O)Nc3nccs3)ccc21` [Compound 101] was over 5 µM.
For `O=C(ON1Cc2ccc(S(=O)(=O)Nc3nccs3)cc2C1)c1ccc(Cl)cc1` [Compound 102] the value was under 2 µM.
The value for `O=C(c1ccccc1Cl)n1ccc2cc(S(=O)(=O)Nc3nccs3)ccc21` [Compound 103] was 2 to 5 µM; that for `O=C(CNC1CCCCC1)N1CCc2cc(S(=O)(=O)Nc3nccs3)ccc21` [Compound 104] was over 5 µM.
For the compound `CCc1nnc(NS(=O)(=O)c2ccc3c(c2)CN(C(=O)[C@@H](C)n2ccc4c(F)cccc42)C3)s1` [Compound 105], the IC50 was in the range of 2 to 5 µM.
For `O=C(Oc1cccc(C(F)(F)F)c1)N1CCc2cc(S(=O)(=O)Nc3nccs3)ccc21` [Compound 106] the value was 2 to 5 µM.
`Cc1ccccc1CC(=O)N1CCc2cc(S(=O)(=O)Nc3nccs3)ccc21` [Compound 107] had an IC50 of under 2 µM.
The value for `COc1cc(NCC(=O)N2CCc3cc(S(=O)(=O)Nc4nccs4)ccc32)cc(OC)c1` [Compound 108] was over 5 µM; that for `O=C(c1cc(Cl)ccc1Cl)N1CCc2cc(S(=O)(=O)Nc3nccs3)ccc21` [Compound 109] was under 2 µM; that for `COc1ccc(F)cc1C(=O)n1ccc2cc(S(=O)(=O)Nc3nccs3)ccc21` [Compound 110] was 2 to 5 µM.
The value for `O=C(COc1cccc(Cl)c1)N1CCCc2cc(S(=O)(=O)Nc3nccs3)ccc21` [Compound 111] was under 2 µM; that for `O=C(COc1ccccc1)N1CCc2cc(S(=O)(=O)Nc3nccs3)ccc21` [Compound 112] was under 2 µM; that for `O=C(COc1ccccc1)N1CCCc2cc(S(=O)(=O)Nc3nccs3)ccc21` [Compound 113] was 2 to 5 µM.
With `O=C(c1ccc(F)cc1)N1CCCc2cc(S(=O)(=O)Nc3nccs3)ccc21` [Compound 114], the IC50 is over 5 µM.
For the compound `O=C(COc1ccc(F)cc1)N1Cc2ccc(S(=O)(=O)Nc3nccs3)cc2C1` [Compound 115], the IC50 is under 2 µM.
For `O=C(c1ccc(Cl)cc1Cl)N1CCc2cc(S(=O)(=O)Nc3nccs3)ccc21` [Compound 116] the value was under 2 µM; for `O=C(Oc1ccc(Cl)cc1)N1CCc2cc(S(=O)(=O)Nc3nccs3)ccc21` [Compound 117], over 5 µM.
The value for `O=C(c1ccc(F)cc1F)N1CCc2cc(S(=O)(=O)Nc3ncns3)ccc21` [Compound 118] was over 5 µM; that for `O=C(c1ccc(F)cc1)N1CCc2ccc(S(=O)(=O)Nc3nccs3)cc2C1` [Compound 119] was over 5 µM.
For `O=C(CN1CCCc2cc(Cl)ccc21)N1Cc2ccc(S(=O)(=O)Nc3ncns3)cc2C1` [Compound 120] the value was under 2 µM; for `O=C(CCn1ccc2cc(Cl)ccc21)N1CCc2ccc(S(=O)(=O)Nc3nccs3)cc2C1` [Compound 121], under 2 µM.
